In ChEMBL document CHEMBL1130632, “Polycyclic aromatic compounds as anticancer agents: synthesis and biological evaluation of some chrysene derivatives” (Bioorg Med Chem Lett, 1998):
In brackets after ≈: the same amount, converted by molar mass.

Key:
Assay type in all cases: functional, cell-based
[1] = tested on: BRO melanoma cell line; assay: Compound was evaluated for the growth inhibition of BRO melanoma cell line.; conditions: Homo sapiens
[2] = tested on: MCF7; assay: Compound was evaluated for the growth inhibition of MCF-7 breast cell line.; conditions: Homo sapiens
[3] = tested on: SK-MEL-2; assay: Compound was evaluated for the growth inhibition of […] melanoma cell line.; conditions: Homo sapiens
[4] = tested on: HT-29; assay: Compound was evaluated for the growth inhibition of HT-29 colon cell line.; conditions: Homo sapiens
[5] = tested on: P388; assay: Compound was evaluated for the growth inhibition of p388/0 leukemia cell line.; conditions: Mus musculus

Compound | IC50 [1] [µg/mL] | IC50 [2] [µg/mL] | IC50 [3] [µg/mL] | IC50 [4] [µg/mL] | IC50 [5] [µg/mL]
CN1CCN(C(=O)CCC(=O)Nc2ccc3c(ccc4c5ccccc5ccc34)c2)CC1 | 9.5 (≈ 22.3 µM) | 9.8 (≈ 23 µM) | 9.2 (≈ 21.6 µM) | 4.8 (≈ 11.3 µM) | 7.9 (≈ 18.6 µM)
CN1CCN(C(=O)CCC(=O)Nc2cc3c4ccccc4ccc3c3ccccc23)CC1 | 11.8 (≈ 27.7 µM) | 11.2 (≈ 26.3 µM) | 10 (≈ 23.5 µM) | 6.6 (≈ 15.5 µM) | 9.8 (≈ 23 µM)
c1ccc2c(c1)ccc1c3ccc(NCCCCN4CCCCC4)cc3ccc21 | 4.5 (≈ 11.8 µM) | 3 (≈ 7.84 µM) | 3.8 (≈ 9.93 µM) | 2.3 (≈ 6.01 µM) | 2.2 (≈ 5.75 µM)
COc1cccc2c1C(=O)c1c(O)c3c(c(O)c1C2=O)C[C@@](O)(C(=O)CO)C[C@@H]3O[C@H]1C[C@H](N)[C@H](O)[C@H](C)O1 [DOXORUBICIN] | 0.2 (≈ 0.368 µM) | 0.4 (≈ 0.736 µM) | 0.1 (≈ 0.184 µM) | 0.5 (≈ 0.92 µM) | 0.8 (≈ 1.47 µM)

Second part, the molecule after the results:

IC50 [1] [µg/mL] | IC50 [2] [µg/mL] | IC50 [3] [µg/mL] | IC50 [4] [µg/mL] | IC50 [5] [µg/mL] | Compound
15 (≈ 36.5 µM) | 11.5 (≈ 28 µM) | 15.9 (≈ 38.7 µM) | 10.1 (≈ 24.6 µM) | 12.2 (≈ 29.7 µM) | O=C(CCC(=O)N1CCCCC1)Nc1cc2c3ccccc3ccc2c2ccccc12
17.3 (≈ 42.1 µM) | 10.2 (≈ 24.8 µM) | 13.3 (≈ 32.4 µM) | 8.5 (≈ 20.7 µM) | 10.5 (≈ 25.6 µM) | O=C(CCC(=O)N1CCCCC1)Nc1ccc2c(ccc3c4ccccc4ccc23)c1
8.8 (≈ 22.1 µM) | 12.1 (≈ 30.4 µM) | 8.7 (≈ 21.9 µM) | 9.3 (≈ 23.4 µM) | 4.7 (≈ 11.8 µM) | CN1CCN(CCCCNc2ccc3c(ccc4c5ccccc5ccc34)c2)CC1
